Measurements: US20060276339A1, “Methods and compositions for increasing the efficacy of biologically-active ingredients” (priority 2002, published 2006)
≈ marks a conversion by molar mass, not a printed value.

Assays:
[1] = tested on: S. cerevisiae yeast cells (YMR4, INVSC); experiment: Yeast growth in suspension with ATP and drug (turbidity); format: cell-based, Saccharomyces cerevisiae; details: 100 mM ATP, 48 hours
Description: Cell lines: Cell lines were the same as those described above in Example 4 and 5. YMR4 MDRI is the phosphatase mutant yeast strain overexpressing AtPGP-1; YMR4 pVT011 contains vector alone; INVSC MDRI is the wild-type yeast strain overexpressing AtPGP-1; and INVSC pVT101 contains vector alone.
Selection in drug: To create drug resistant yeast strains, all four cell lines were grown up in the presence of 500 ng/ml of cycloheximide, and transferred to other cycloheximide containing plates after a period of four to six days. This transfer of cell lines and subculturing continued such that the yeast cells grew in the presence of cycloheximide for a period of at least a month. Cells cultured in media alone: To create cell lines that had not been preselected for their ability to grow in drug, yeast strains were grown on plates containing YNB (Bio101, Vista, Calif.) without uracil (-URA) to maintain the presence of the vector (which supplies URA) without any drugs added.
Growth of cells in suspension for ATP and drug selection experiments: Cells were transferred into 5 ml YNB-URA liquid media for turbidity measurements. All cell lines (both non-drug selected and drug-selected) were grown in media with the addition of either nothing, 500 ng/ml cycloheximide, 100 mM ATP, or 500 ng/ml cycloheximide and 100 mM ATP. Turbidity readings were taken after 48 hours.

SW-13 = experiment: IC50 test (NTT), 96 well plate, vinblastine sensitive parent line; format: cell-based; details: Homo sapiens, SW13, 96 h, read-out: IC50 (sensitive at)
Description: (§1) In order to determine the effect of ectophosphatase inhibitors on tumor cells resistant to a chemotherapeutic agent, 2 […] tumor cell lines were tested, a vinblastine resistant line (SW-13Vb003) and its vinblastine sensitive parent line, SW-13. A standard 4 day incubation at 37° C. and 5% CO2 was used. IC50 tests (NTT) were done using standard methodology in 96 well plate format with inhibitor concentrations ranging from 0-90 μg/ml (DMEM media). […] For NGXT194, SW-13 was sensitive at 20 μg/ml, whereas the vinblastine resistant line SW-13Vb003 was sensitive at 10 μg/ml. For NGXT196, SW-13 was sensitive at 30 μg/ml, whereas the vinblastine resistant line SW-13Vb003 was sensitive at 10 μg/ml. For NGXT1915, SW-13 was sensitive at 50 μg/ml, whereas the vinblastine resistant line SW-13Vb003 was sensitive at 20 μg/ml.

SW-13Vb003 = experiment: IC50 test (NTT), 96 well plate, vinblastine resistant line; format: cell-based; details: 96 h, read-out: IC50 (sensitive at)
Description: as §1

[2] = tested on: ectoapyrase activity associated with the plasma membrane of cholinergic nerve terminal of Torpedo mannorata electric organs; details: Torpedo electric organ nerve terminal plasma membrane; cited from earlier work
YMR4 yeast [3] = experiment: Yeast growth in suspension, adenosine salvage pathway experiments (turbidity); format: cell-based, Saccharomyces cerevisiae; details: added to media with cycloheximide, 72 hours
Description: Selection in drug: To create drug resistant yeast strains, all four cell lines were grown up in the presence of 500 ng/ml of cycloheximide, and transferred to other cycloheximide containing plates after a period of four to six days. This transfer of cell lines and subculturing continued such that the yeast cells grew in the presence of cycloheximide for a period of at least a month.
Growth of cell lines in suspension for salvage pathway experiments: All cell lines were grown in liquid media either containing drug (for the drug selected lines) or not containing drug (for the non-drug selected lines). When the cultures reached a turbidity of 1.00 as measured at a wavelength of 600 in a spectrophotometer (OD600=1.00), 10 μl of each culture was then removed and placed in either media with nothing added, 3 mM potassium phosphate; 3 mM adenosine; 9 mM potassium phosphate and 3 mM adenosine (for controls); potassium phosphate and cycloheximide; adenosine and cycloheximide; adenosine, cycloheximide, and potassium phosphate. Cell cultures were further grown for 72 hours, and their turbidity was determined by OD600 readings on a spectrophotometer.

[4] = tested on: AtPGP-1 overexpressing (MDR OE) Arabidopsis thaliana plants; format: in vivo; details: AtPGP-1 overexpressing plants; cycloheximide 500 ng/ml, phosphatase inhibitor 1 mM; 10-20 days
Excerpt: Similar methods were employed to express AtPGP-1 in Arabidopsis thaliana plants with the following modifications. […] This plasmid was then transformed into A. tumefaciens as described above, which was used to infect root calli to produce transgenic plants expressing AtPGP-1.
(§2) Plant Growth: Arabidopsis seeds were sown in a solid germination media containing MS salts (Sigma Chemical, St. Louis, Mo.), 2% sucrose, 0.8% agar, and vitamins (Valvekens et al., 1992). For selection assays, one of the following, or a combination of both, was added to media (cooled to less than 50° C. before adding) immediately prior to pouring into plates: cycloheximide at a final concentration of 500 ng/ml; α,β-methyleneadenosine 5′-diphosphate at a final concentration of 1 mM. Plant growth was measured by germination percentage after 10-20 days.

INVSCI yeast = experiment: Yeast drug selection growth assay, wild-type strain; format: cell-based, Saccharomyces cerevisiae; details: cycloheximide 500 ng/ml
Excerpt: (§3) Expression of AtPGP-1 in yeast: The AtPGP-1 cDNA (Arabidopsis thaliana MDR gene, accession #X61370) was subcloned into pVT101 downstream of the ADH promoter to create the AtPGP-1/pVT101 construct. AtPGP-1/pVT101 and pVT101 were transformed into Saccharomyces cerevisiae INVSCI (genotype: MATa, his3-Δ1, leu2, trpl-289, ura3-52) and YMR4 (genotype: MATαhis3-11,15, leu2-3, 112ura3Δ5, can Res pho5, 3::ura3A1) by a PEG lithium acetate procedure (Eble, 1992) and selected on uracil dropout medium.
(§4) Yeast Growth: Yeast were grown at 30° C. under conditions of constant selection for uracil auxotrophy. YNB (Bio101, Vista, Calif.) supplemented with CSM (uracil dropout) and 2% glucose was used to grow strains having pVT101 constructs. Cycloheximide (Sigma Chemical, St. Louis, Mo.) was added to liquid media or spread on solid media to achieve a final concentration of 500 ng/ml. Nigencm (Sigma Chemical, St. Louis, Mo.) was added to liquid media or spread on solid media to achieve a final concentration of 25 μg/ml. Yeast strains used in cycloheximide selection assays were always propagated in the presence of the cycloheximide on plates and then streaked onto new plates containing drug or no drug, such that induced resistance existed in each strain at the time of the start of the assay. […] Yeast selection assays in liquid media were quantitated by turbidity as measured by absorbance at OD600.

[5] = tested on: wild-type Arabidopsis thaliana plants; experiment: Arabidopsis germination selection assay, wild-type plants; format: in vivo; details: cycloheximide 500 ng/ml, phosphatase inhibitor 1 mM, 10-20 days
Description: Plant growth: Arabidopsis thaliana seeds were sown in a solid germination media containing MS salt, 2% sucrose, 0.8% agar, and vitamins (Valvekens et al., 1992). For selection assays, cycloheximide was spread on the media to achieve a final concentration of […]. Plant growth was measured by germination percentage after 6-30 days.
as §2
All other materials and methods were discussed above in Example 4.

YMR4 yeast [6] = experiment: Yeast drug selection growth assay, phosphatase deficient mutant; format: cell-based, Saccharomyces cerevisiae
Excerpt: as §3, §4

Nc1ncnc2c1ncn2[C@@H]1O[C@H](COP(=O)(O)OP(=O)(O)OP(=O)(O)O)[C@@H](O)[C@H]1O [ATP]
yeast growth in high levels of ATP ([1]; cells not previously selected in drug): able to grow
yeast growth in high levels of ATP ([1]; cells previously grown in drug (resistant), not overexpressing AtPGP-1): not able to grow

Cc1ccc(O)c(/C=N/NC(=O)Cc2cccc3ccccc23)c1 [NGXT194]
IC50 (SW-13): 20 µg/mL (≈ 62.8 µM)
IC50 (SW-13Vb003): 10 µg/mL (≈ 31.4 µM)

O=C(Cc1cccc2ccccc12)N/N=C/c1ccc(Br)cc1 [NGXT196]
IC50 (SW-13): 30 µg/mL (≈ 81.7 µM)
IC50 (SW-13Vb003): 10 µg/mL (≈ 27.2 µM)

C/C(=N\NC(=O)c1cccc(C)c1)c1ccc2ccccc2c1 [NGXT1915]
IC50 (SW-13): 50 µg/mL (≈ 165 µM)
IC50 (SW-13Vb003): 20 µg/mL (≈ 66.1 µM)

Cc1ccc(C(=O)Nc2ccc(S(=O)(=O)O)c3cc(S(=O)(=O)O)cc(S(=O)(=O)O)c23)cc1NC(=O)c1cccc(NC(=O)Nc2cccc(C(=O)Nc3cc(C(=O)Nc4ccc(S(=O)(=O)O)c5cc(S(=O)(=O)O)cc(S(=O)(=O)O)c45)ccc3C)c2)c1 [Suramin, 8,8′[Carbonylbis[imino-3,1-phenylenecarbonylimino(4-methyl-3,1-phenylene)carbonylimino]]bis-1,3,5-naphthalenetrisulfonic acid]
inhibition of ectoapyrase activity [2]: potent non-competitive inhibitor

Nc1ncnc2c1ncn2[C@@H]1O[C@H](CO)[C@@H](O)[C@H]1O [adenosine]
effect on resistance of yeast cells to cycloheximide (YMR4 yeast [3]): did not enhance resistance

C[C@@H]1C[C@@H]([C@H](O)CC2CC(=O)NC(=O)C2)C(=O)[C@@H](C)C1 [cycloheximide]
germination rate [4]: 50%
yeast growth in drug (INVSCI yeast): did grow
germination rate [5]: 2%
yeast growth in drug (YMR4 yeast [6]; YMR4 mutant, cycloheximide 500 ng/ml): did not grow

CO[C@@H]1C[C@@H](C[C@H]2CC[C@H](C)[C@H]([C@@H](C)C(=O)O)O2)O[C@]2(O[C@](C)([C@H]3CC[C@@](C)([C@@H]4O[C@@H]([C@H]5O[C@@](O)(CO)[C@H](C)C[C@@H]5C)C[C@@H]4C)O3)C[C@H]2C)[C@@H]1C [nigericin]
yeast growth in drug (YMR4 yeast [6]; YMR4 containing vector alone, nigericin 25 μg/ml): reduced growth

Nc1ncnc2c1ncn2[C@@H]1O[C@H](COP(=O)(O)CP(=O)(O)O)[C@@H](O)[C@H]1O [phosphatase inhibitor, α,β-methyleneadenosine 5′-diphosphate]
germination rate [4]: 83%
germination rate [5]: 90%

O=P(O)(O)O [phosphate, potassium phosphate]
effect on resistance of yeast cells to cycloheximide (YMR4 yeast [3]): did not enhance resistance
